From ChEMBL document CHEMBL2029246, “Identification of benzoxazole analogs as novel, S1P(3) sparing S1P(1) agonists” (Bioorg Med Chem Lett, 2012)
Active and inactive are the calls of the source. The calls are words filed in the database; no cut-off is given here.

Experiments:
[1] = target: Sphingosine 1-phosphate receptor 1 (Homo sapiens, UniProt P21453); experiment: Agonist activity at SIP1 receptor by tango assay; assay type: functional
[2] = target: Sphingosine 1-phosphate receptor 3 (Homo sapiens, UniProt Q99500); experiment: Agonist activity at human SIP3 receptor assessed as calcium mobilization by GeneBLAzer assay; assay type: functional
Homo sapiens = species: Homo sapiens; experiment: Selectivity ratio of EC50 for SIP1 receptor to EC50 for human SIP3 receptor
Mus musculus [3] = species: Mus musculus; experiment: Lymphopenic activity in C57BL/6 mouse assessed as reduction in blood lymphocytes after 4 to 8 weeks relative to control; assay type: functional, organism-based
Mus musculus [4] = species: Mus musculus; experiment: Lymphopenic activity in C57BL/6 mouse assessed as reduction in blood lymphocytes relative to control; assay type: functional; design: scale not given: the % may be the effect or the level left
[5] = Half life in mouse at 2 mg/kg, po; assay type: ADME, organism-based; design: dose 2 mg/kg, route oral; details: in vivo
[6] = Ratio of drug level in brain to blood in iv dosed mouse after 4 hrs; assay type: ADME, organism-based; details: read-out: BBR
[7] = Cmax in mouse at 2 mg/kg, po; assay type: ADME, organism-based; design: dose 2 mg/kg, route oral; details: in vivo
[8] = Ratio of drug level in brain to blood in iv dosed mouse after 1 hr; assay type: ADME, organism-based; details: read-out: BBR
[9] = Clearance in iv dosed mouse; assay type: ADME, organism-based; details: in vivo
[10] = AUC (0 to 24 hrs) in mouse at 2 mg/kg, po; assay type: ADME, organism-based; design: time < 24 hr, dose 2 mg/kg, route oral; details: plasma
Mus musculus [11] = experiment: Lymphopenia activity in mouse assessed as reduction in blood lymphocytes at 1 mg/kg after 4 hrs relative to control; assay type: functional; design: scale not given: the % may be the effect or the level left
Mus musculus [12] = experiment: Lymphopenic activity in mouse assessed as reduction in blood lymphocytes at 1 mg/kg after 24 hrs relative to control; assay type: functional, organism-based; design: dose 1 mg/kg
[13] = Oral bioavailability in mouse at 2 mg/kg; assay type: ADME, organism-based; details: in vivo
[14] = Volume of distribution in iv dosed mouse; assay type: ADME, organism-based; details: in vivo

Sequence of Sphingosine 1-phosphate receptor 3 (Q99500 whole entry): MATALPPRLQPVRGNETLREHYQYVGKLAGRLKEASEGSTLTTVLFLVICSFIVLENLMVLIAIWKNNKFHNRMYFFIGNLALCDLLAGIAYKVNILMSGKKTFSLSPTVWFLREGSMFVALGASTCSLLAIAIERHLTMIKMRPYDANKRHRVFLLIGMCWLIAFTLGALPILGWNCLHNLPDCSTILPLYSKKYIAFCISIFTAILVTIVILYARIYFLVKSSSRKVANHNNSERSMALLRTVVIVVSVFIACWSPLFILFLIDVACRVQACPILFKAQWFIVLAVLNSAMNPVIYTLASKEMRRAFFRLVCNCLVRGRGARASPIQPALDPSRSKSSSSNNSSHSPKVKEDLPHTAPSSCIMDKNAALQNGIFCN
Sequence of Sphingosine 1-phosphate receptor 1 (P21453 whole entry): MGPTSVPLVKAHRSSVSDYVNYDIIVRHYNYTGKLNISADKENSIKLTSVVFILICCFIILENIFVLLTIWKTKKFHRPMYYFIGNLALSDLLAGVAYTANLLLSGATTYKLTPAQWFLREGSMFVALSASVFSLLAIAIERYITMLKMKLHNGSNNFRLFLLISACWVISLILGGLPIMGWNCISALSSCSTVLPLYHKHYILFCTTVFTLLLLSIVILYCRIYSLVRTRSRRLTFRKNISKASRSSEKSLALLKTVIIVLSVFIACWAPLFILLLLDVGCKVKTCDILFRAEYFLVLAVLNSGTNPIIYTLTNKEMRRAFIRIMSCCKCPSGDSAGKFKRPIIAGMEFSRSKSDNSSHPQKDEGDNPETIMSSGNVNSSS

| SMILES | EC50 [1] [nM] | EC50 [2] [nM] | also measured |
| --- | --- | --- | --- |
| O=C(O)CCCCCc1cn2cc(-c3ccc(-c4ccccc4)c(C(F)(F)F)c3)nc2s1 | 63.1 | > 10000 |  |
| O=C(O)CCNCCc1ccc2oc(-c3ccc(-c4ccccc4)c(C(F)(F)F)c3)nc2c1 | 0.0316 | 200 |  |
| O=C(O)C1CN(CCc2ccc3oc(-c4ccc(-c5ccccc5)c(C(F)(F)F)c4)nc3c2)C1 | 0.398 | 794 |  |
| CC(C)Oc1ccc(-c2nc3cc(CCCCCC(=O)O)cnc3o2)cc1C(F)(F)F | 20 | > 10000 |  |
| CC(C)Oc1ccc(-c2nc3cc(CCCCCC(=O)O)cnc3o2)cc1Cl | 158 | > 10000 |  |
| CC(C)Oc1ccc(-c2nc3cc(CCC(=O)O)cnc3o2)cc1Cl | > 3160 | > 10000 |  |
| O=C(O)CCCCCc1ccn2nc(-c3ccc(-c4ccccc4)c(C(F)(F)F)c3)nc2c1 | 126 | > 10000 |  |
| CC(C)Oc1ncc(-c2nc3cc(CCCCCC(=O)O)cnc3o2)cc1Cl | 1000 | > 10000 |  |
| O=C(O)CC1CCN(c2ccc3oc(-c4ccc(-c5ccccc5)c(C(F)(F)F)c4)nc3c2)CC1 | 1.26 | 1260 |  |
| O=C(O)C1CCCN(CCCc2ccc3oc(-c4ccc(-c5ccccc5)c(C(F)(F)F)c4)nc3c2)C1 (centres undefined) | 0.501 | 2000 |  |
| O=C(O)C1CCN(CCCc2ccc3oc(-c4ccc(-c5ccccc5)c(C(F)(F)F)c4)nc3c2)CC1 | 0.794 | 501 |  |
| CC(C)Oc1ccc(-c2nc3cc(CC(=O)O)cnc3o2)cc1Cl | > 3160 | > 10000 |  |
| O=C(O)CN1CCN(c2ccc3oc(-c4ccc(-c5ccccc5)c(C(F)(F)F)c4)nc3c2)CC1 | 0.398 | 2000 |  |
| O=C(O)CCCCCc1cnc2sc(-c3ccc(-c4ccccc4)c(C(F)(F)F)c3)nc2c1 | 10 | > 10000 |  |
| CC(C)Oc1ccc(-c2nc3cc(CCCCC(=O)O)cnc3o2)cc1Cl | 158 | > 10000 |  |
| O=C(O)CN1CCC(c2ccc3oc(-c4ccc(-c5ccccc5)c(C(F)(F)F)c4)nc3c2)CC1 | 1 | 2000 |  |
| CC(C)Oc1ncc(-c2nc3cc(CCCCCC(=O)O)cnc3o2)cc1C(F)(F)F | 6.31 | > 10000 |  |

| SMILES | EC50 [1] [nM] | EC50 [2] [nM] | also measured |
| --- | --- | --- | --- |
| O=C(O)C1CCN(CCc2ccc3oc(-c4ccc(-c5ccccc5)c(C(F)(F)F)c4)nc3c2)CC1 | 0.158 | 501 |  |
| O=C(O)CCCCCc1cnc2oc(-c3ccc(-c4ccccc4)c(C(F)(F)F)c3)nc2c1 | 0.316 | > 10000 |  |
| CC(C)Oc1ccc(-c2nc(-c3cccc4c3ccn4CCC(=O)O)no2)cc1Cl | 0.01 |  | Ratio EC50 (Homo sapiens): 1e+06 |
| O=C(O)CCN1CCC(c2ccc3oc(-c4ccc(-c5ccccc5)c(C(F)(F)F)c4)nc3c2)CC1 | 0.0794 | 1000 |  |
| CN(CCCc1ccc2oc(-c3ccc(-c4ccccc4)c(C(F)(F)F)c3)nc2c1)CC(=O)O | 0.316 | 1000 |  |
| CCCCCCCCc1ccc(CCC(N)(CO)CO)cc1.Cl [FINGOLIMOD HYDROCHLORIDE] |  |  | Activity (Mus musculus [3]): inactive; Activity (Mus musculus [4]): 20% |
| O=C(O)CCCCCc1cnc2oc(-c3cc(-c4ccccc4)c(C(F)(F)F)s3)nc2c1 | 398 | > 10000 |  |
| CC(C)Oc1ccc(-c2nc(-c3cccc4c3c(Cl)cn4CCC(=O)O)no2)cc1Cl | 0.0251 | > 10000 |  |
| O=C(O)CCCCCc1ccn2cc(-c3ccc(-c4ccccc4)c(C(F)(F)F)c3)nc2c1 | 398 | > 10000 |  |
| CC(C)Oc1ccc(-c2nc3cc(CCCC(=O)O)cnc3o2)cc1Cl | 1000 | > 10000 |  |
| O=C(O)CCCCCc1ccc2oc(-c3ccc(-c4ccccc4)c(C(F)(F)F)c3)nc2c1 | 0.398 | > 10000 |  |
| O=C(O)C1CCN(c2ccc3oc(-c4ccc(-c5ccccc5)c(C(F)(F)F)c4)nc3c2)CC1 | 0.631 | > 3160 | half-life [5]: 5.4 h; Kp at 4 h [6]: 3.73; Cmax [7]: 1070 ng/mL; Kp at 1 h [8]: 1.45; clearance [9]: 3.68 mL/min/kg; AUC(0-t) at 24 h [10]: 10300 ng·h/mL; Activity (Mus musculus [11]): 37%; Activity (Mus musculus [12]): inactive; bioavailability [13]: > 100%; Vd [14]: 1.48 L/kg |
| O=C(O)C1CN(c2ccc3oc(-c4ccc(-c5ccccc5)c(C(F)(F)F)c4)nc3c2)C1 | 10 | 2000 |  |
| O=C(O)CCCCCc1ccc2[nH]c(-c3ccc(-c4ccccc4)c(C(F)(F)F)c3)cc2c1 | 126 | > 10000 |  |
| O=C(O)CNCCCc1ccc2oc(-c3ccc(-c4ccccc4)c(C(F)(F)F)c3)nc2c1 | 0.0316 | 251 | Ratio EC50 (Homo sapiens): > 1000 |
| CC(C)Oc1ccc(-c2nc3cc(C(=O)O)cnc3o2)cc1Cl | > 3160 | > 10000 |  |
| O=C(O)C1CN(CCCc2ccc3oc(-c4ccc(-c5ccccc5)c(C(F)(F)F)c4)nc3c2)C1 | 0.1 | 126 |  |
